Key:
CaCo-2 = assay: antioxidant activity test (DCFH-DA, oxidative stress by oxygenated water); format: cell-based, human; conditions: 0.15 mg/ml
Experimental: In order to verify the antioxidant power of the composition of the invention in a biological system similar to the intestinal epithelium (CaCo-2), the following tests were carried out: Evaluation of the antioxidant activity of the sample on human cells subject to chemical, progressive oxidative stress. The assessment of the antioxidant action is acquired from the quantification of the formation of free radicals in cells exposed to the sample and to oxidative stress. The antioxidant activity of the sample in analyses was evaluated by comparison with that of a safe hydrosoluble antioxidant, such as vitamin C. The protocol is based on the use of a fluorescent probe called 2′,7′-dichlorofluorescein diacetate (DCFH-DA), a non-fluorescent stable molecule that enters the cells, bonds to the membrane macromolecules, where it is hydrolysed from cytoplasmic esterases to give dichlorofluorescein (DCFH), a molecule that again is non-fluorescent. DCFH, in the presence of free radicals, is oxidised, forming a highly fluorescent molecule: DCF. The oxidative stress is induced via oxygenated water. The radicals produced constitutively from the cells with the addition of the sample, but without the addition of the oxidising agent, were also monitored as a negative control (absence of oxidant activity of the composition of the invention).

[1] = system: colitis induced by acetic acid; assay: model of colitis induced by acetic acid in rats; format: in vivo, rat; conditions: average ± SEM
Experimental: To test in vivo the efficacy of the composition of the invention, said composition was formulated in capsules and was assessed in terms of its ability to protect the susceptibility of the intestinal mucosa to irritating stimuli. Based on the presumed mechanism of the product to act on the inflammatory component of IBS (supported only recently by the literature) by means of a local, indirect protective and anti-inflammatory action also stemming from mucoadhesion, an experimental model of inflammatory colitis, not specific for IBS, was selected.
The study was carried out on a model of colitis induced by acetic acid, as described by McPherson B R, Pfeiffer C J (1978) Experimental Production of Diffuse Colitis in Rats. Digestion;17:135-150; Mousavizadeh K, Rahimian R, Fakhfouri G, Aslani F S, Ghafourifar P. (2009) Anti-inflammatory effects of 5-HT receptor antagonist, tropisetron on experimental colitis in rats. Eur J Clin Invest.;39(5):375-83; Noronha-Blob L, Lowe V C, Muhlahauser R O, Burch R M. (1993) NPC 15669, an inhibitor of neutrophil recruitment, is efficacious in acetic acid-induced colitis in rats. Gastroenterology, 104:1021-9.
Each group was formed by 10 rats in accordance with the following schema • 1. Rats without colitis, treated with vehicle 10 ml/kg, (p.o.); • 2. Rats with colitis, treated with vehicle 10 ml/kg, (p.o.); • 3. Rats with colitis, treated with the composition of the invention, (p.o.); • 4. Rats with colitis, treated with dexamethasone, (p.o) as reference. Macroscopic and microscopic parameters were measured.
In particular, the macroscopic damage to the colon, the colon index (mg of colon/grams of rat) and the activity of myeloperoxidase, an enzyme contained in the intracellular azurophilic granules of the polymorphonuclear leukocytes (PMNs), which can therefore be used as an indicator of the accumulation of the migrated neutrophils in the tissues during an inflammatory process, are shown.
To verify the effectiveness of the use of the incense ingredient in the formulations, the same experiment of inflammatory colitis induced by acetic acid was carried out with a formulation devoid of incense (ABO-INT-10-2), which corresponds to the formulation Abo-INT 10 (general formulations on page 16), devoid of incense.

duodenum = assay: protective effect on intestinal mucosa in Ussing chamber, duodenum; format: in vivo, rat; conditions: isolated (stress) rats, composition 500 mg/kg, dexamethasone 1 mg/kg intragastrically, average ±SD
Experimental: (§1) The experiment was conducted in order to verify the effects of the tested substances on the artificially damaged intestinal mucosa ex vivo (for example hydrochloric acid).
(§2) […] male Sprague Dawley rats weighing approximately 200-250 g were used for the test.
(§3) 4 groups of 8 rats A, B, C, D were formed, respectively containing untreated rats, rats treated with 1.0 ml saline solution intragastrically, rats treated with 1.0 ml (500 mg/kg of body weight) of composition of the invention intragastrically, and rats treated with 1.0 ml of dexamethasone (1 mg/kg of body weight) intragastrically.
(§4) The animals in groups A, B, C and D were deprived of food for 18 hours.
Four rats per group were anaesthetised 30 minutes after the above-indicated administration by means of intraperitoneal injection and were kept in a heated atmosphere.
A sample of the duodenum was then dissected from these rats and mounted between the two half-chambers of the Ussing chamber and damage was induced using hydrochloride (pH 8.0; pH 5.5). […]
(§5) The ddp in mV through the mucosal membrane was measured directly as well as the short-circuit current, and these were monitored for 15 minutes whilst the transmembrane resistance was calculated in ohm x cm^2 using Ohm's law. […]
(§6) The system was then stabilised for 10 minutes and the same parameters as indicated above were then measured for 15 minutes. […]

ileum = assay: protective effect on intestinal mucosa in Ussing chamber, ileum; format: in vivo, rat; conditions: isolated (stress) rats, composition 500 mg/kg, dexamethasone 1 mg/kg intragastrically, average ±SD
Experimental: as §1, §2, §3, §4
Four rats per group were then anaesthetised 50 minutes after the above-indicated administration by means of intraperitoneal injection and were kept in a heated atmosphere.
A sample of the ileum was then dissected from these rats and mounted between the two half-chambers of the Ussing chamber and damage was induced using hydrochloride (pH 8.0; pH 6.5). […]
as §5, §6

[2] = Table 1, rats with 4% acetic acid colitis, ABO/INT-10 1 g/kg, dexamethasone 1 mg/kg p.o.
[3] = Table 3, experiment with formulation devoid of incense, ABO/INT-10-2 1 g/kg, dexamethasone 1 mg/kg
[4] = Table 4, experiment with formulation devoid of incense, ABO/INT-10-2 1 g/kg, dexamethasone 1 mg/kg

Compound: O=C1O[C@H]([C@@H](O)CO)C(O)=C1O [vitamin C]
- % reduction of free radicals (CaCo-2; 30 min): 38%
- % reduction of free radicals (CaCo-2; 60 min): 44.8%
- % reduction of free radicals (CaCo-2; 90 min): 48%
- % reduction of free radicals (CaCo-2; 120 min): 47%

Compound: C[C@@H]1C[C@H]2[C@@H]3CCC4=CC(=O)C=C[C@]4(C)[C@@]3(F)[C@@H](O)C[C@]2(C)[C@@]1(O)C(=O)CO [Dexamethasone, dexamethasone]
- Faecal excretion number [1, 2]: 40.40 ± 8.035
- Faecal excretion weight [1, 2]: 9.440 ± 1.790 g
- Body weight (g) Final ([1]; Table 1, rats with 4% acetic acid colitis, final, ABO/INT-10 1 g/kg, dexamethasone 1 mg/kg p.o.): 214.3 ± 4.177 g
- Macroscopic damage ([1]; Table 2, colon, rats with 4% acetic acid colitis, composition 1 g/kg, dexamethasone 1 mg/kg p.o.): 4.417 ± 1.052
- Colon index ([1]; Table 2, mg of colon/grams of rat, composition 1 g/kg, dexamethasone 1 mg/kg p.o.): 6.041 ± 0.341 mg/g
- MPO (U/mg tissue) ([1]; Table 2, myeloperoxidase activity, after 24 hours, composition 1 g/kg, dexamethasone 1 mg/kg p.o.): 15.387 ± 6.136 U/mg tissue
- Defecations number [1, 3]: 42.10 ± 9.011
- Defecations weight [1, 3]: 9.44 ± 1.79 g
- Weight variation (g) [1, 3]: 2.167 ± 1.493°°** g
- Colon index (mg/g) [1, 4]: 6.041 ± 0.341°** mg/g
- MPO (U/mg tissue) [1, 4]: 16.423 ± 5.9780°* U/mg tissue
- Macroscopic damage [1, 4]: 4.417 ± 1.052°°**
- average value of resistance of the duodenum after induction of damage (duodenum; Krebs buffer at pH 5.5): 48.0±12.7 ohm×cm^2
- average value of resistance of the duodenum (duodenum; physiological pH Krebs buffer, 30 minutes): 50.4±13.9 ohm×cm^2
- average value of resistance of the ileum after induction of damage (ileum; Krebs buffer at pH 6.5): 39.7±8.1 ohm×cm^2
- average value of resistance of the ileum (ileum; physiological pH Krebs buffer, 50 minutes): 50.6±13.4 ohm×cm^2

From US11213559B2, “Formulation for treatment of irritable bowel disease” (ABOCA S.P.A. SOCIETA′ AGRICOLA, priority 2012, dated 2022)
